The text below walks through data of patent US12240813B2, “Deuterated tryptamine derivatives and methods of use” (priority 2020, dated 2025).

Data set [1] relates to rat liver microsomes. Briefly: Metabolic stability in rat liver microsomes (RLM). The following applies: for % Remaining of Initial, 0 min / % Remaining of Initial, 5 min / % Remaining of Initial, 10 min / % Remaining of Initial, 20 min / % Remaining of Initial, 30 min / % Remaining of Initial, 60 min / % Remaining of Initial, 120 min / RLM (metabolized or not) / RLM, % (half-life as % vs. the related nondeuterated compound): RLM; for % Remaining of Initial, 0 min / % Remaining of Initial, 5 min / % Remaining of Initial, 10 min / % Remaining of Initial, 20 min / % Remaining of Initial, 30 min / % Remaining of Initial, 60 min / % Remaining of Initial, 120 min: Table 2, four test articles; for RLM (metabolized or not): last assay time point 120 min; for RLM, % (half-life as % vs. the related nondeuterated compound): values in square brackets are within 10% difference (assay's accuracy), no deuteration effect. For orientation: Liver microsomes are vesicles of endoplasmic reticulum, rich in cytochrome P450 enzymes.

In data set [2] the target is T1, hrMAO-A (Homo sapiens, UniProt P21397).
T1 construct: purchased XenoTech Lot #8213001
T1 sequence (P21397 1-527): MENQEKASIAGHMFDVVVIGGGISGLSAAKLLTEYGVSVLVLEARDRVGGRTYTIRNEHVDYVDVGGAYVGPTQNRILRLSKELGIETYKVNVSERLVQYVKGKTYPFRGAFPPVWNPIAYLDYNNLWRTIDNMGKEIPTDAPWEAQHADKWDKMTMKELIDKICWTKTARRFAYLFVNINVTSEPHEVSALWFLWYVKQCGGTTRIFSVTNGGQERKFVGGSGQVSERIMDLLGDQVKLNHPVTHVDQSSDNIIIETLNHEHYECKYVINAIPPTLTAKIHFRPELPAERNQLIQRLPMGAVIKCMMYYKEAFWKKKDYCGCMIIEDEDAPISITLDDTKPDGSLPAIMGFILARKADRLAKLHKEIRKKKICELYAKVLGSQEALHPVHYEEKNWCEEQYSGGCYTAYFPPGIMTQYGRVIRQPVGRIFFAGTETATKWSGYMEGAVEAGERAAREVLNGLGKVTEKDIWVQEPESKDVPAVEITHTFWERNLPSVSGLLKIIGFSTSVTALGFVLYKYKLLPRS
The experiment in a line: Metabolic stability in the presence of hrMAO-A. To be noted: for % Remaining of Initial, 0 min / % Remaining of Initial, 5 min / % Remaining of Initial, 10 min / % Remaining of Initial, 20 min / % Remaining of Initial, 30 min / % Remaining of Initial, 60 min / % Remaining of Initial, 120 min / CLint / Half-life: hrMAO-A; for % Remaining of Initial, 0 min / % Remaining of Initial, 5 min / % Remaining of Initial, 10 min / % Remaining of Initial, 20 min / % Remaining of Initial, 30 min / % Remaining of Initial, 60 min / % Remaining of Initial, 120 min / Half-life: Table 3, four test articles; for CLint: Table 3; for MAO (metabolized or not) / MAO, % (half-life as % vs. the related nondeuterated compound): MAO-A; for MAO (metabolized or not): last assay time point 120 min; for MAO, % (half-life as % vs. the related nondeuterated compound): values in square brackets are within 10% difference (assay's accuracy), no deuteration effect. It is filed as in vitro ADME. On the procedure: The reaction mixture was prepared as described below. The co-dosed TAs were added into the reaction mixture at a final concentration of 1 microM each. The positive control, kynuramine (25 microM), was run simultaneously with the TAs in a separate reaction. The reaction mixture (without TAs or kynuramine) was equilibrated in a shaking water bath at 37° C. for 5 minutes. The reaction was initiated by the addition of the TAs or kynuramine, and the mixture was incubated in a shaking water bath at 37° C. Aliquots (100 microL) of the TA reaction mixture were withdrawn at 0, 5, 10, 20, 30, 60, and 120 minutes. Aliquots (100 microL) of the positive control reaction mixture were withdrawn at 0 and 30 minutes. TA and kynuramine samples were immediately combined with 100 microL of ice-cold 100% MeCN containing 0.1% formic acid and IS to terminate the reaction. The samples were then mixed and centrifuged to precipitate proteins. All TA samples were assayed by LC-HRAMS. The PARR (analyte to IS) at each time point was compared to the PARR at time 0 to determine the percent remaining at each time point. Reaction composition: hrMAO 0.02 mg/mL; Potassium Phosphate, pH 7.4 100 mM; Magnesium Chloride 5 mM; Test Articles (each) 1 microM.

For the molecule `[2H]C([2H])(c1c[nH]c2ccccc12)C([2H])([2H])N(C)C` [DMT-d4], in data set [1], the “% Remaining of Initial, 0 min” value is reported as 100%; the “% Remaining of Initial, 5 min” value was determined as 70.7%; the “% Remaining of Initial, 10 min” value amounted to 59.6%; the “% Remaining of Initial, 20 min” value is 51.8%. Further, in data set [1], the “% Remaining of Initial, 30 min” value was determined as 46.3%; the “% Remaining of Initial, 60 min” value is reported as 34.2%; the “% Remaining of Initial, 120 min” value came to 23.7%. Further, in data set [2], the “% Remaining of Initial, 0 min” value turned out to be 100%; the “% Remaining of Initial, 5 min” value is on record as 106%; the “% Remaining of Initial, 10 min” value amounted to 111%; the “% Remaining of Initial, 20 min” value is given as 102%. Besides, in data set [2], the “% Remaining of Initial, 30 min” value turned out to be 98.2%; the “% Remaining of Initial, 60 min” value worked out at 77.4%; the “% Remaining of Initial, 120 min” value came to 61.4%; the CLint is reported as 0.119 mL/min/mg protein. In addition, the Half-life in data set [2] is more than 2 h.
Take `CN(C)CCc1c[nH]c2ccccc12` [DMT, reference compound]: in data set [1], the “% Remaining of Initial, 0 min” value amounted to 100%; the “% Remaining of Initial, 5 min” value came to 65.2%; the “% Remaining of Initial, 10 min” value is listed as 52.2%; the “% Remaining of Initial, 20 min” value was 41.0%. For the same molecule, in data set [1], the “% Remaining of Initial, 30 min” value came out at 33.2%; the “% Remaining of Initial, 60 min” value was found to be 17.4%; the “% Remaining of Initial, 120 min” value came out at 4.07%. In data set [2], the “% Remaining of Initial, 0 min” value was found to be 100%; the “% Remaining of Initial, 5 min” value is recorded as 96.3%; the “% Remaining of Initial, 10 min” value worked out at 90.7%; the “% Remaining of Initial, 20 min” value is 64.8%. For the same molecule, in data set [2], the “% Remaining of Initial, 30 min” value came out at 49.4%; the “% Remaining of Initial, 60 min” value was 18.1%; the “% Remaining of Initial, 120 min” value came out at 3.95%; the CLint came to 0.638 mL/min/mg protein. In data set [2], the Half-life is 0.453 h.
In the case of `CNCCc1c[nH]c2cccc(O)c12` [reference compound], the “RLM (metabolized or not)” value in data set [1] is given as “R”. Further, the “MAO (metabolized or not)” value in data set [2] is “R”.
As to `[2H]c1[nH]c2c([2H])c([2H])c([2H])c([2H])c2c1C([2H])([2H])C([2H])([2H])N(C([2H])([2H])[2H])C([2H])([2H])[2H]` [DMT-d15], in data set [1] (RLM assay), the “half-life compared to DMT-d10” value is “no improvement in half-life”. In addition, in data set [1], the “RLM, % (half-life as % vs. the related nondeuterated compound)” value (from here on “RLM, %”) amounted to 325%. In addition, in data set [2], the “MAO, % (half-life as % vs. the related nondeuterated compound)” value (“MAO, %” for short) came to 643%.
For the molecule `CCNCCc1c[nH]c2ccccc12` [reference compound], the “RLM (metabolized or not)” value in data set [1] is reported as “R”. In addition, the “MAO (metabolized or not)” value in data set [2] was “R”.
Turning to `[2H]C([2H])(Cc1c[nH]c2ccc(O)cc12)N(C)CC`, the “RLM, %” value in data set [1] is given as 132%. Further, the “MAO, %” value in data set [2] turned out to be 173%.
Regarding `CCN(C)CCc1c[nH]c2ccccc12` [reference compound], in data set [1], the “RLM (metabolized or not)” value is “R”. Further, in data set [2], the “MAO (metabolized or not)” value was “R”.
In the case of `[2H]c1[nH]c2c([2H])c([2H])c([2H])c([2H])c2c1C([2H])([2H])C([2H])([2H])N(C)C`, the “RLM, %” value in data set [1] was found to be 243%. Besides, in data set [2], the “MAO, %” value is on record as 551%.
With `[2H]C([2H])(Cc1c[nH]c2ccccc12)NC`, the “RLM, %” value in data set [1] was 182%. Further, the “MAO, %” value in data set [2] is listed as 578%.
The like results for `[2H]C([2H])(c1c[nH]c2ccc(O)cc12)C([2H])([2H])N(C)CC` were, in that order, 144% and 179%.
The like results for `[2H]C([2H])(Cc1c[nH]c2ccc(O)cc12)N(C)C` were, in that order, 133% and 415%.
Consider `[2H]C([2H])([2H])NC([2H])([2H])C([2H])([2H])c1c[nH]c2ccccc12`, for which, in data set [1], the “RLM, %” value stood at 214%. Moreover, the “MAO, %” value in data set [2] is recorded as 711%.
The like results for `[2H]C([2H])(Cc1c[nH]c2ccccc12)NCC` were, in that order, 138% and 145%.
Turning to `CCN(C)CCc1c[nH]c2cccc(OC)c12` [reference compound], in data set [1], the “RLM (metabolized or not)” value is “R”. Moreover, in data set [2], the “MAO (metabolized or not)” value is on record as “R”.
On to `[2H]C([2H])(c1c[nH]c2ccc(OC)cc12)C([2H])([2H])N(C)CC`, for which the “RLM, %” value in data set [1] is on record as 115%. For the same molecule, the “MAO, %” value in data set [2] turned out to be 132%.
Regarding `CCN(C)CCc1c[nH]c2ccc(OC)cc12` [reference compound], the “RLM (metabolized or not)” value in data set [1] is “R”. For the same molecule, in data set [2], the “MAO (metabolized or not)” value is “R”.
As for `CCN(C)CCc1c[nH]c2ccc(O)cc12` [reference compound], the “RLM (metabolized or not)” value in data set [1] is given as “R”. Also, in data set [2], the “MAO (metabolized or not)” value is reported as “R”.
For the molecule `[2H]C([2H])(Cc1c[nH]c2ccc(OC)cc12)N(C)CC`, the “RLM, %” value in data set [1] came out at 117%. In addition, the “MAO, %” value in data set [2] is on record as 126%.
The like results for `[2H]C([2H])(c1c[nH]c2cccc(OC)c12)C([2H])([2H])N(C)C` were, in that order, 190% and 325%.
With `[2H]C([2H])([2H])Oc1ccc2[nH]cc(CC([2H])([2H])N(C([2H])([2H])[2H])C([2H])([2H])[2H])c2c1`, the “RLM, %” value in data set [1] came to 288%. Further, the “MAO, %” value in data set [2] came out at 366%.
The like results for `[2H]C([2H])(c1c[nH]c2ccc(OC)cc12)C([2H])([2H])N(C)C` were, in that order, 184% and 229%.
On to `COc1ccc2[nH]cc(CCN(C)C)c2c1` [5-MeO-DMT, reference compound], for which the “RLM (metabolized or not)” value in data set [1] is “R”. For the same molecule, the “MAO (metabolized or not)” value in data set [2] was “R”.
Turning to `[2H]C([2H])(Cc1c[nH]c2ccccc12)NC([2H])([2H])C([2H])([2H])[2H]`, the “RLM, %” value in data set [1] worked out at 151%. The “MAO, %” value in data set [2] is given as 170%.
In the case of `COc1cccc2[nH]cc(CCN(C)C)c12` [reference compound], the “RLM (metabolized or not)” value in data set [1] was “R”. For the same molecule, the “MAO (metabolized or not)” value in data set [2] was “R”.
